Assays:
[1] = biological target: Dual specificity protein kinase CLK2 (Homo sapiens) (UniProt P49760)
[2] = biological target: Serine/threonine-protein kinase 26 (Homo sapiens) (UniProt Q9P289)
[3] = biological target: T1, Serine/threonine-protein kinase PLK4 (Homo sapiens) (UniProt O00444)
T1 sequence (whole entry): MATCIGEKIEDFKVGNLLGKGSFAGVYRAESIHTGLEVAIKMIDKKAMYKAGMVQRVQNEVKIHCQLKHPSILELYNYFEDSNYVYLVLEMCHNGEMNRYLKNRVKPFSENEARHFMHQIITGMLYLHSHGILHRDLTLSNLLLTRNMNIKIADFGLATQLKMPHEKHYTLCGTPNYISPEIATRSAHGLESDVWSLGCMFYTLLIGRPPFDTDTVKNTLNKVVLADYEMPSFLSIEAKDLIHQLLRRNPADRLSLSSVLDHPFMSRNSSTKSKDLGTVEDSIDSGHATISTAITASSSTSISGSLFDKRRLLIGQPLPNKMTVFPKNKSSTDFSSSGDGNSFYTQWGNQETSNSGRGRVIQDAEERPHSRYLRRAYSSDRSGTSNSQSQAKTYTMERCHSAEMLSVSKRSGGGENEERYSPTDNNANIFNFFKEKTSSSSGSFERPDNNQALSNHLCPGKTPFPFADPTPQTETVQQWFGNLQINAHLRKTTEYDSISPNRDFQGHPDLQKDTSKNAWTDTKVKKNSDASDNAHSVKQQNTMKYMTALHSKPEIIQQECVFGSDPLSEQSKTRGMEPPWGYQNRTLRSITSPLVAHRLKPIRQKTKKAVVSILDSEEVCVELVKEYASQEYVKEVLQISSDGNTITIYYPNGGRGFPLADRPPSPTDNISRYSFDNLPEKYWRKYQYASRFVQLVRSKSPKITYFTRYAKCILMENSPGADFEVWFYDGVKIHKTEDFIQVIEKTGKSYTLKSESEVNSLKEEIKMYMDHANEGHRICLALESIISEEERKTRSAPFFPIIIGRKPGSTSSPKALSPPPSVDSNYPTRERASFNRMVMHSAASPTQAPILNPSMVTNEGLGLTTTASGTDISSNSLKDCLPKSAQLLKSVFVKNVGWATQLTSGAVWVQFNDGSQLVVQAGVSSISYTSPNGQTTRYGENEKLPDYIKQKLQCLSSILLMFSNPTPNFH

[4] = biological target: T2, Myotonin-protein kinase (Homo sapiens) (UniProt Q09013)
T2 sequence (whole entry): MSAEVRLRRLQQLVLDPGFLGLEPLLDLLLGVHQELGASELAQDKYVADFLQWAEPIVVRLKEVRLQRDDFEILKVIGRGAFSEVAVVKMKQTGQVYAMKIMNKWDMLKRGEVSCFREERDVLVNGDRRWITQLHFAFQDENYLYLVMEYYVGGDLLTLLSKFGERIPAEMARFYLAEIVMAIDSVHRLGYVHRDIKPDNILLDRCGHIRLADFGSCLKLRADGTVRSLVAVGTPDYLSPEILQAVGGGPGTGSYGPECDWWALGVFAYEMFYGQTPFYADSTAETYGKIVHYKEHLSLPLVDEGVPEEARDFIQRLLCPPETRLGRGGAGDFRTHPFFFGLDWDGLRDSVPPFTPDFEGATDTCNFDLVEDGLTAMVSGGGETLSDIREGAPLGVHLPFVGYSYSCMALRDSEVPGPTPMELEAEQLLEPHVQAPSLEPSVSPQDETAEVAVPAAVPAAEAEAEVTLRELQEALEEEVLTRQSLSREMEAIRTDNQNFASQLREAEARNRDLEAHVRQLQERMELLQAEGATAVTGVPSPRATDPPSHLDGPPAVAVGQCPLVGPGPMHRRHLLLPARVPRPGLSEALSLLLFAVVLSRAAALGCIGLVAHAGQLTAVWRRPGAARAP

[5] = biological target: T3, 3-phosphoinositide-dependent protein kinase 1 (Homo sapiens) (UniProt O15530)
T3 sequence (whole entry): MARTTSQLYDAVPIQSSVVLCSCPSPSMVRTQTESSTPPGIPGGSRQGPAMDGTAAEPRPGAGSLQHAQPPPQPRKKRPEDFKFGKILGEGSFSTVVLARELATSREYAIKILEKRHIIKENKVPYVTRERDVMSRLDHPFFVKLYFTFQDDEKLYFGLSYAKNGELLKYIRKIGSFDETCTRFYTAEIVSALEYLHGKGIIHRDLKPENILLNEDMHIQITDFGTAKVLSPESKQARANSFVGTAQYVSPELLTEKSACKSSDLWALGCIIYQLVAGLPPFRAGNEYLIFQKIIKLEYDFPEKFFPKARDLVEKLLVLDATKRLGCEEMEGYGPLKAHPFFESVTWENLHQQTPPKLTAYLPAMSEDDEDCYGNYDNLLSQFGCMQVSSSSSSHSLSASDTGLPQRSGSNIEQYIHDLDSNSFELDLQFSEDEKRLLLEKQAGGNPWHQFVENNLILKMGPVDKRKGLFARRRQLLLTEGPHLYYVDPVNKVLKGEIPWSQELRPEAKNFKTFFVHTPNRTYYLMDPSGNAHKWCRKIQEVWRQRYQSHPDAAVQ

[6] = biological target: Serine/threonine-protein kinase Nek6 (Homo sapiens) (UniProt Q9HC98)
Serine/threonine-protein kinase Nek6 (Homo sapiens), sequence (Q9HC98 whole entry): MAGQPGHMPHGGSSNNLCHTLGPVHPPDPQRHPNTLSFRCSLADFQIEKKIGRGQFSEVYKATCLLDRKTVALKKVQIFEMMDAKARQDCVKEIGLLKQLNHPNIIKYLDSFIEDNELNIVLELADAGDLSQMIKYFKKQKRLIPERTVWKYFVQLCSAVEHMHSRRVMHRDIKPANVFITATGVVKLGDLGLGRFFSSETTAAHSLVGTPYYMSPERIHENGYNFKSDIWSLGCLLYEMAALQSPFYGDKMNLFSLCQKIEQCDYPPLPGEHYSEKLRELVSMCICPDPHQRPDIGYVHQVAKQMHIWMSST

[7] = biological target: Serine/threonine-protein kinase VRK2 (Homo sapiens) (UniProt Q86Y07)
Serine/threonine-protein kinase VRK2 (Homo sapiens), sequence (Q86Y07 whole entry): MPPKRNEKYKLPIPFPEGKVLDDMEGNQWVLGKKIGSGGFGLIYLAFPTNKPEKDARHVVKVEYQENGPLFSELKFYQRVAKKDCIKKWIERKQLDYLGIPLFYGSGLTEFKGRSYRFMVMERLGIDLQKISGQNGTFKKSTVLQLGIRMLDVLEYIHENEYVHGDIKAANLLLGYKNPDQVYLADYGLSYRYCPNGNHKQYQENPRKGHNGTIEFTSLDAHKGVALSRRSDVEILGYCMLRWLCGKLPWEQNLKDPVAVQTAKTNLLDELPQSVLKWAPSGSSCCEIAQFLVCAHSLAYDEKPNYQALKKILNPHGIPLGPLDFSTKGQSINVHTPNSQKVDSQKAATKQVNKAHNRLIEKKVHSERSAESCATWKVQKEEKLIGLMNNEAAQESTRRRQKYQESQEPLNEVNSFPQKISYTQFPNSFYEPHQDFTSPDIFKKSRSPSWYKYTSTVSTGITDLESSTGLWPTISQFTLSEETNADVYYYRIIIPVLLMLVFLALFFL

[8] = biological target: Serine/threonine-protein kinase PAK 6 (Homo sapiens) (UniProt Q9NQU5)
Serine/threonine-protein kinase PAK 6 (Homo sapiens), sequence (Q9NQU5 whole entry, looked up): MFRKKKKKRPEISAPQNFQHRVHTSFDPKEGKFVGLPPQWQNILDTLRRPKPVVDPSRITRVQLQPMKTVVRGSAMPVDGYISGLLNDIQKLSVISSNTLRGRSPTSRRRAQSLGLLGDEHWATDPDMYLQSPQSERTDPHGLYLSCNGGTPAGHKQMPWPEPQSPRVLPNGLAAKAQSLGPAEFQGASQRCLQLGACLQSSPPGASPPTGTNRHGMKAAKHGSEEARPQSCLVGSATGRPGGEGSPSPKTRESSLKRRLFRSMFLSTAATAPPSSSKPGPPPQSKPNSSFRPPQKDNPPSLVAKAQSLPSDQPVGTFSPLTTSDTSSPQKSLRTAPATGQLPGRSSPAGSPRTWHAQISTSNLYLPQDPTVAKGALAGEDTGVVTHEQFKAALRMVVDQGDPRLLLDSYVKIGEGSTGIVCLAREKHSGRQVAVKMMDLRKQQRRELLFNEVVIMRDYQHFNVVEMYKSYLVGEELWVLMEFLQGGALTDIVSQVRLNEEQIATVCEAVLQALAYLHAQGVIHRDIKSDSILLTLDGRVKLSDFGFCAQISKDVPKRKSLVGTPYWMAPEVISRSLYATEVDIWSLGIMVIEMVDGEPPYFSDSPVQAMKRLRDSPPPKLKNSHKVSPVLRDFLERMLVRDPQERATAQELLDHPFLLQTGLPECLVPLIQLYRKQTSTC

[9] = biological target: Mitogen-activated protein kinase 11 (Homo sapiens, UniProt Q15759)
Mitogen-activated protein kinase 11, sequence (Q15759 whole entry): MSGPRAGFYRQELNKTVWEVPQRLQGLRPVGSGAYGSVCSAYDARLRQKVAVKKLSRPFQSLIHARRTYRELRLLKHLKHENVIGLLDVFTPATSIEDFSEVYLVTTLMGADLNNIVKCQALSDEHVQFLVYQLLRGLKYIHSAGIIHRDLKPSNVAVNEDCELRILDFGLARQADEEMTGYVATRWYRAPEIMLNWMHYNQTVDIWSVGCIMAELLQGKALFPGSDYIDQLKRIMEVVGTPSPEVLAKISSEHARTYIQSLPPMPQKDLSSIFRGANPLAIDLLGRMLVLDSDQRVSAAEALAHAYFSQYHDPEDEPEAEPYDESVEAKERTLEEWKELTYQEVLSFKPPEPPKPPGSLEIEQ

[10] = biological target: cAMP-dependent protein kinase catalytic subunit alpha (Homo sapiens) (UniProt P17612)
[11] = biological target: T4, Serine/threonine-protein kinase 17A (Homo sapiens) (UniProt Q9UEE5)
T4 sequence (whole entry): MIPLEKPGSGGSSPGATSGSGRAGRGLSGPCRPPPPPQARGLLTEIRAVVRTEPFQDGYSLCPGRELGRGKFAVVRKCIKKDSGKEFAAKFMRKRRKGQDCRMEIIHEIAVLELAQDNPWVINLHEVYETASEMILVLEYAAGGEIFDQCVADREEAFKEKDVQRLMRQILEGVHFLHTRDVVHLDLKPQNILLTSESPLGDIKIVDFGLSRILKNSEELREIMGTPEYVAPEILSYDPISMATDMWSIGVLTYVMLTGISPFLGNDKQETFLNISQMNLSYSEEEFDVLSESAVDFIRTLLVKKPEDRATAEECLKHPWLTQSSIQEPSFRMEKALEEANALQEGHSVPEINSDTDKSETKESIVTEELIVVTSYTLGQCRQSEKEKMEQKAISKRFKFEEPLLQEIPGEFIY

Dual specificity protein kinase CLK2 (Homo sapiens), sequence (P49760 whole entry, looked up): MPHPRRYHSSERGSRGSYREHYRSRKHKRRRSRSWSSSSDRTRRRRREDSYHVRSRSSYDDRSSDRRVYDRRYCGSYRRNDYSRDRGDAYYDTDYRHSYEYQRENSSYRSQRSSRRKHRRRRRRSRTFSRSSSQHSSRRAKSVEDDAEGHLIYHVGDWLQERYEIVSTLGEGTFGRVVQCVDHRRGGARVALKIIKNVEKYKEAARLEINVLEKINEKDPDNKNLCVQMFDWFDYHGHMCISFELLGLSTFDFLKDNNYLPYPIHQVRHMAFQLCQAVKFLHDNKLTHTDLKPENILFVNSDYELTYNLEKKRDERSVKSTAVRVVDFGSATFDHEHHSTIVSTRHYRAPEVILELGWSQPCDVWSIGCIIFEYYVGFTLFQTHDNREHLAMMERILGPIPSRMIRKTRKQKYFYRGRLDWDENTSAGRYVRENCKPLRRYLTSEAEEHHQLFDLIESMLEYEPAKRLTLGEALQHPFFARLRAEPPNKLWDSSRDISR
Serine/threonine-protein kinase 26 (Homo sapiens), sequence (Q9P289 2-416 limits assumed): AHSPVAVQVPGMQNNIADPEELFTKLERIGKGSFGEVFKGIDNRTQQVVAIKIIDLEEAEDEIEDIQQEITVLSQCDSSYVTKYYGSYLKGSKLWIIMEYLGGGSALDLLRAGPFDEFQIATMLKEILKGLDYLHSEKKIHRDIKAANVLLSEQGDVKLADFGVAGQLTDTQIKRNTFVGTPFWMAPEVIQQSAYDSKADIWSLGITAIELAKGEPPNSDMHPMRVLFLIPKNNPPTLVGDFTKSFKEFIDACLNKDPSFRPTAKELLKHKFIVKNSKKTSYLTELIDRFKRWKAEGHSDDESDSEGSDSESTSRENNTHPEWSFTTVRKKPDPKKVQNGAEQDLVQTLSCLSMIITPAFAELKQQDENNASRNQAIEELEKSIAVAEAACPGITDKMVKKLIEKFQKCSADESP

Structure (SMILES)	ΔTm [1] [°C]	ΔTm [2] [°C]	ΔTm [3] [°C]	ΔTm [4] [°C]	ΔTm [5] [°C]	ΔTm [6] [°C]	ΔTm [7] [°C]	ΔTm [8] [°C]	ΔTm [9] [°C]	ΔTm [10] [°C]	ΔTm [11] [°C]
C[C@@H]1C[C@H]2O[C@@H]2/C=C\C=C\C(=O)Cc2c(Cl)c(O)cc(O)c2C(=O)O1 [RADICICOL]	0.1	0.9	0.5	-0.9	0.2	-0.6	0.2	0.3	0.7	0.7	1
Cc1cc(Nc2nc(-c3ccccc3)nc3ccccc23)n[nH]1	2.8	9.5	1.3	1.9	-0.4	0.4	0.4	5.4	0.1	6.4	2.2
N=C(N)NCCNS(=O)(=O)c1cccc2cnccc12	0.1	0.1	0.1	0.2	-0.3	0.2	0.1	0	-0.3	1.7	0.6
COc1cc(OC)c(/C=C2\C(=O)Nc3ccccc32)c(OC)c1	0.3	0	0.3	0.2	-0.1	0	2.2	0	0.6	0.4	-0.3
O=c1c(O)c(-c2ccc(O)c(O)c2)oc2cc(O)cc(O)c12 [QUERCETIN]	4.9	8.1	7.4	3	1.1	1.6	2.7	1.1	2.2	4.2	9.3
Brc1c(Br)c(Br)c2[nH]nnc2c1Br [TETRABROMOBENZOTRIAZOLE]	2.4	1.3	4.4	1.1	-4.4	0.6	-0.5	-0.1	0.8	0.6	4.1
CCOC(=O)c1c(C)[nH]c(/C=C2\C(=O)Nc3ccccc32)c1C	0.6	-0.7	2.3	0.5	0.2	0.1	0.2	-0.5	-0.4	-1.6	4.5
COc1cc(O)c2c(c1)oc(=O)c1c3cc(O)c(O)cc3oc21 [WEDELOLACTONE]	1.2	3.2	2.9	2.7	-0.4	0.4	1.2	-0.6	1.5	2.3	3
